The supplement of paper PMC10307832

Key:
Assay in all cases: relative viability (nuclei count vs DMSO), 5 days (fraction); higher = more cells survive
Apatinib + Linsitinib = compound: N#CC1(c2ccc(NC(=O)c3cccnc3NCc3ccncc3)cc2)CCCC1 [Apatinib] + C[C@]1(O)C[C@@H](c2nc(-c3ccc4ccc(-c5ccccc5)nc4c3)c3c(N)nccn32)C1 [Linsitinib] (partner 1 µM)
In short: (§1)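 Lung cancer cell lines, seeded in 1536-well plates, were treated the following day by pin tool with a single drug or with five library-drug doses (not always all listed) in √10 steps on top of a fixed anchor-drug dose. Cells were fixed and nuclei stained in one step after 5 days, and nuclei were counted. Relative viability is the nuclei count for treated wells divided by that for vehicle wells, reported as medians of duplicate plates.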

Metformin + Olaparib = compound: CN(C)C(=N)NC(=N)N [Metformin] + O=C(c1cc(Cc2n[nH]c(=O)c3ccccc23)ccc1F)N1CCN(C(=O)C2CC2)CC1 [Olaparib] (partner 8 µM)
In short: as §1

Metformin + Alpelisib = compound: CN(C)C(=N)NC(=N)N [Metformin] + Cc1nc(NC(=O)N2CCC[C@H]2C(N)=O)sc1-c1ccnc(C(C)(C)C(F)(F)F)c1 [Alpelisib] (partner 2 µM)
In short: as §1

Apatinib + Bortezomib = compound: N#CC1(c2ccc(NC(=O)c3cccnc3NCc3ccncc3)cc2)CCCC1 [Apatinib] + CC(C)C[C@H](NC(=O)[C@H](Cc1ccccc1)NC(=O)c1cnccn1)B(O)O [Bortezomib] (partner 0.002 µM)
In short: as §1

With NCI-H1755 the relative viability (Apatinib + Linsitinib; first compound 0.08 µM) was 0.976, the relative viability (Apatinib + Linsitinib; first compound 0.253 µM) was 0.97 and the relative viability (Apatinib + Linsitinib; first compound 0.8 µM) was 0.964. It also gave a relative viability (Apatinib + Linsitinib; first compound 2.53 µM) of 0.977, a relative viability (Apatinib + Linsitinib; first compound 8 µM) of 0.709 and a relative viability (Metformin + Olaparib; first compound 10 µM) of 0.735. The relative viability (Metformin + Olaparib; first compound 31.62 µM) was 0.774, the relative viability (Metformin + Olaparib; first compound 100 µM) was 0.79 and the relative viability (Metformin + Olaparib; first compound 316.23 µM) was 0.716. The relative viability (Metformin + Olaparib; first compound 1000 µM) was 0.829, the relative viability (Metformin + Alpelisib; first compound 10 µM) was 0.767 and the relative viability (Metformin + Alpelisib; first compound 31.62 µM) was 0.826. The relative viability (Metformin + Alpelisib; first compound 100 µM) was 0.796, the relative viability (Metformin + Alpelisib; first compound 316.23 µM) was 0.724 and the relative viability (Metformin + Alpelisib; first compound 1000 µM) was 0.798. It also gave a relative viability (Apatinib + Bortezomib; first compound 0.08 µM) of 1.02, a relative viability (Apatinib + Bortezomib; first compound 0.253 µM) of 0.959 and a relative viability (Apatinib + Bortezomib; first compound 0.8 µM) of 0.94. For the same cell line, the relative viability (Apatinib + Bortezomib; first compound 2.53 µM) was 0.945 and the relative viability (Apatinib + Bortezomib; first compound 8 µM) was 0.925.
LOU-NH91 gave a relative viability (Apatinib + Linsitinib; first compound 0.08 µM) of 0.94, a relative viability (Apatinib + Linsitinib; first compound 0.253 µM) of 0.916 and a relative viability (Apatinib + Linsitinib; first compound 0.8 µM) of 0.717. It also gave a relative viability (Apatinib + Linsitinib; first compound 2.53 µM) of 0.845, a relative viability (Apatinib + Linsitinib; first compound 8 µM) of 0.777 and a relative viability (Metformin + Olaparib; first compound 10 µM) of 0.859. For the same cell line, the relative viability (Metformin + Olaparib; first compound 31.62 µM) was 0.894, the relative viability (Metformin + Olaparib; first compound 100 µM) was 0.865 and the relative viability (Metformin + Olaparib; first compound 316.23 µM) was 0.883. For the same cell line, the relative viability (Metformin + Olaparib; first compound 1000 µM) was 0.845, the relative viability (Metformin + Alpelisib; first compound 10 µM) was 0.762 and the relative viability (Metformin + Alpelisib; first compound 31.62 µM) was 0.709. For the same cell line, the relative viability (Metformin + Alpelisib; first compound 100 µM) was 0.806, the relative viability (Metformin + Alpelisib; first compound 316.23 µM) was 0.634 and the relative viability (Metformin + Alpelisib; first compound 1000 µM) was 0.642. It also gave a relative viability (Apatinib + Bortezomib; first compound 0.08 µM) of 0.466, a relative viability (Apatinib + Bortezomib; first compound 0.253 µM) of 0.492 and a relative viability (Apatinib + Bortezomib; first compound 0.8 µM) of 0.543. It also gave a relative viability (Apatinib + Bortezomib; first compound 2.53 µM) of 0.443 and a relative viability (Apatinib + Bortezomib; first compound 8 µM) of 0.476.
In the case of LC-2-ad, the relative viability (Apatinib + Linsitinib; first compound 0.08 µM) is reported as 0.863, the relative viability (Apatinib + Linsitinib; first compound 0.253 µM) is reported as 0.831 and the relative viability (Apatinib + Linsitinib; first compound 0.8 µM) is reported as 0.864. For the same cell line, the relative viability (Apatinib + Linsitinib; first compound 2.53 µM) was 0.652, the relative viability (Apatinib + Linsitinib; first compound 8 µM) was 0.507 and the relative viability (Metformin + Olaparib; first compound 31.62 µM) was 0.537. For the same cell line, the relative viability (Metformin + Olaparib; first compound 100 µM) was 0.562, the relative viability (Metformin + Olaparib; first compound 316.23 µM) was 0.505 and the relative viability (Metformin + Olaparib; first compound 1000 µM) was 0.587. The relative viability (Metformin + Alpelisib; first compound 31.62 µM) was 0.812, the relative viability (Metformin + Alpelisib; first compound 100 µM) was 0.671 and the relative viability (Metformin + Alpelisib; first compound 316.23 µM) was 0.69. For the same cell line, the relative viability (Metformin + Alpelisib; first compound 1000 µM) was 0.651, the relative viability (Apatinib + Bortezomib; first compound 0.08 µM) was 0.937 and the relative viability (Apatinib + Bortezomib; first compound 0.253 µM) was 1.15. For the same cell line, the relative viability (Apatinib + Bortezomib; first compound 0.8 µM) was 1.22, the relative viability (Apatinib + Bortezomib; first compound 2.53 µM) was 0.946 and the relative viability (Apatinib + Bortezomib; first compound 8 µM) was 0.832.
Cell Line COR-L 105 has a relative viability (Apatinib + Linsitinib; first compound 0.08 µM) of 0.994, a relative viability (Apatinib + Linsitinib; first compound 0.253 µM) of 1.15 and a relative viability (Apatinib + Linsitinib; first compound 0.8 µM) of 0.705. The relative viability (Apatinib + Linsitinib; first compound 2.53 µM) was 0.985, the relative viability (Apatinib + Linsitinib; first compound 8 µM) was 0.676 and the relative viability (Metformin + Olaparib; first compound 10 µM) was 0.804. The relative viability (Metformin + Olaparib; first compound 31.62 µM) was 0.625, the relative viability (Metformin + Olaparib; first compound 100 µM) was 0.645 and the relative viability (Metformin + Olaparib; first compound 316.23 µM) was 0.725. The relative viability (Metformin + Olaparib; first compound 1000 µM) was 0.694, the relative viability (Metformin + Alpelisib; first compound 10 µM) was 1.14 and the relative viability (Metformin + Alpelisib; first compound 31.62 µM) was 1.33. The relative viability (Metformin + Alpelisib; first compound 100 µM) was 1.07, the relative viability (Metformin + Alpelisib; first compound 316.23 µM) was 0.963 and the relative viability (Metformin + Alpelisib; first compound 1000 µM) was 0.802. For the same cell line, the relative viability (Apatinib + Bortezomib; first compound 0.08 µM) was 1.12, the relative viability (Apatinib + Bortezomib; first compound 0.253 µM) was 0.897 and the relative viability (Apatinib + Bortezomib; first compound 0.8 µM) was 0.901. The relative viability (Apatinib + Bortezomib; first compound 2.53 µM) was 0.605 and the relative viability (Apatinib + Bortezomib; first compound 8 µM) was 0.658.
